From ChEMBL document CHEMBL3826916, “Synthesis and potent antiprotozoal activity of mono/di amidino 2-anilinobenzimidazoles versus Plasmodium falciparum and Trypanosoma brucei rhodesiense” (Bioorg Med Chem, 2016)
pIC50: −log10 of the molar value.

Tests used:
[1] = system: Trypanosoma brucei rhodesiense; assay: Antiparasitic activity against bloodstream forms of Trypanosoma brucei rhodesiense STIB 900 assessed as growth inhibition after 72 hrs by resazurin assay; assay type: functional, organism-based; details: STIB 900, 72 h
L6 = assay: Cytotoxicity against rat L6 cells by alamar blue assay; assay type: cell-based
[2] = Selectivity index, ratio of IC50 for rat L6 cells to IC50 for chloroquine and pyrimethamine resistant Plasmodium falciparum K1 infected in human erythrocytes; assay type: toxicity, cell-based; details: read-out: Ratio IC50
[3] = Selectivity index, ratio of IC50 for rat L6 cells to IC50 for bloodstream forms of Trypanosoma brucei rhodesiense STIB 900; assay type: toxicity, cell-based; details: read-out: Ratio IC50
Plasmodium falciparum = assay: Antiplasmodial activity against chloroquine and pyrimethamine resistant Plasmodium falciparum K1 infected in human erythrocytes after 48 hrs by [3H]hypoxanthine incorporation assay; assay type: functional, organism-based

| SMILES | pIC50 [1] | pIC50 (L6) | selectivity ratio [2] | selectivity ratio [3] | pIC50 (Plasmodium falciparum) |
| --- | --- | --- | --- | --- | --- |
| N=C(N)c1ccc(Nc2nc3cc(C(F)(F)F)ccc3[nH]2)cc1 | 4.68 | 4.38 | 49 | 2 | 6.07 |
| Cc1cc2[nH]c(Nc3ccc(C(=N)N)cc3)nc2cc1Cl | 4.68 | 4.63 | 29 | 1.1 | 6.10 |
| N=C(N)c1ccc2[nH]c(Nc3ccc(Cl)cc3)nc2c1 | 4.77 | 4.38 | 60 | 2.4 | 6.16 |
| N=C(N)c1ccc2[nH]c(Nc3ccccc3)nc2c1 | 4.26 | 3.63 | 43 | 4.3 | 5.26 |
| N=C(N)c1ccc(Nc2nc3cc(Cl)ccc3[nH]2)cc1 | 4.71 | 4.33 | 53 | 2.4 | 6.06 |
| CC(C)CNC(=N)c1ccc(Nc2nc3cc(C(=N)NCC(C)C)ccc3[nH]2)cc1 | 8.02 | 4.07 | 925 | 8880 | 7.04 |
| N=C(N)c1ccc2[nH]c(Nc3ccc(Cl)c(Cl)c3)nc2c1 | 4.66 | 4.41 | 280 | 1.8 | 6.86 |
| N=C(N)c1ccc(Nc2nc3cc(C(=N)N)ccc3[nH]2)cc1 | 8.33 | 3.98 | 1560 | 22600 | 7.17 |
| CC(C)NC(=N)c1ccc(Nc2nc3cc(C(=N)NC(C)C)ccc3[nH]2)cc1 | 7.57 | 3.97 | 660 | 4000 | 6.79 |
| N=C(N)c1ccc(Nc2nc3ccccc3[nH]2)cc1 | 4.80 | 3.91 | 37 | 7.7 | 5.48 |
| CCC(C)NC(=N)c1ccc(Nc2nc3cc(C(=N)NC(C)CC)ccc3[nH]2)cc1 (stereo not given) | 7.34 | 4.03 | 320 | 2060 | 6.53 |
| N=C(NC1CCCCC1)c1ccc(Nc2nc3cc(C(=N)NC4CCCCC4)ccc3[nH]2)cc1 | 8.29 | 4.20 | 1390 | 12500 | 7.34 |
